Experimental findings from ChEMBL document CHEMBL1255480, “Characterization of DIM-1, an integron-encoded metallo-beta-lactamase from a Pseudomonas stutzeri clinical isolate in the Netherlands” (2010) are described below.

Converted amounts (≈) assume the structure as drawn.

In series [1] the test system is Escherichia coli. Description: Antimicrobial activity against Escherichia coli TOP10 harboring beta-lactamase DIM-1 by agar dilution method. Format: functional.
Series [2] addresses T1, Metallo-beta-lactamase (Pseudomonas stutzeri) (UniProt D5JGF6).
T1 sequence (whole entry): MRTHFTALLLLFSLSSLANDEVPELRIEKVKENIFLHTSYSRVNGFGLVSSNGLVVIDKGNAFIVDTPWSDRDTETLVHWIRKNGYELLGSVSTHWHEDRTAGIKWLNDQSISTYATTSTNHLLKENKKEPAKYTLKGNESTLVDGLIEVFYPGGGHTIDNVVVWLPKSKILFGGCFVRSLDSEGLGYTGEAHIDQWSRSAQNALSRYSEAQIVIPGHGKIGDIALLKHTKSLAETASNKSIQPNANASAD
Description: Ratio of Kcat to Km for Pseudomonas stutzeri beta-lactamase DIM-1by UV-spectrophotometry. Set-up: unit not given here. Conditions: Stutzerimonas stutzeri.

The subject of series [3] is Escherichia coli. Description: Antimicrobial activity against Escherichia coli TOP10 harboring beta-lactamase DIM-1 by agar dilution method in presence of beta-lactam inhibitor clavulanic acid. Format: functional. A general note: Agar dilution tests growth on a series of plates holding different concentrations.
Series [4] deals with Stutzerimonas stutzeri. Put plainly: Antimicrobial activity against Pseudomonas stutzeri clinical isolate expressing beta-lactamase DIM-1 by agar dilution method in presence of beta-lactam inhibitor clavulanic acid. Format: functional.
Series [5] deals with Escherichia coli. Description: Antimicrobial activity against Escherichia coli TOP10 by agar dilution method in presence of beta-lactam inhibitor clavulanic acid. Format: functional.
The subject of series [6] is Stutzerimonas stutzeri. Put plainly: Antimicrobial activity against Pseudomonas stutzeri clinical isolate expressing beta-lactamase DIM-1 by agar dilution method. In kind it is functional.
For series [7], the system named is Escherichia coli. Description: Antimicrobial activity against Escherichia coli TOP10 by agar dilution method. Format: functional.
The subject of series [8] is Escherichia coli. Description: Antimicrobial activity against Escherichia coli TOP10 harboring beta-lactamase DIM-1 by agar dilution method in presence of beta-lactam inhibitor Tazobactam. Format: functional.
Series [9] has as its system Stutzerimonas stutzeri. Description: Antimicrobial activity against Pseudomonas stutzeri clinical isolate expressing beta-lactamase DIM-1 by agar dilution method in presence of beta-lactam inhibitor Tazobactam. Format: functional.
Series [10] has as its system Escherichia coli. Put plainly: Antimicrobial activity against Escherichia coli TOP10 by agar dilution method in presence of beta-lactam inhibitor Tazobactam. In kind it is functional.
Substrate in series [11]: CO[C@@]1(NC(=O)Cc2cccs2)C(=O)N2C(C(=O)O)=C(COC(N)=O)CS[C@@H]21
Put plainly: (§1) Activity of Pseudomonas stutzeri beta-lactamase DIM-1 by UV-spectrophotometry. The settings on record: Stutzerimonas stutzeri.

Substrate in series [12]: CC1(C)S[C@@H]2[C@H](NC(=O)Cc3ccccc3)C(=O)N2[C@H]1C(=O)O
The series is described as §1. Conditions: Stutzerimonas stutzeri.

Substrate in series [13]: C[C@@H](O)[C@H]1C(=O)N2C(C(=O)O)=C(S[C@@H]3CN[C@H](C(=O)N(C)C)C3)[C@H](C)[C@H]12
The series is described as §1. Conditions: Stutzerimonas stutzeri.

Substrate in series [14]: CO/N=C(\C(=O)N[C@@H]1C(=O)N2C(C(=O)O)=C(COC(C)=O)CS[C@H]12)c1csc(N)n1
The series is described as §1. Conditions: Stutzerimonas stutzeri.

Substrate in series [15]: C[C@@H](O)[C@H]1C(=O)N2C(C(=O)O)=C(SCCNC=N)C[C@H]12
Described as §1. Conditions: Stutzerimonas stutzeri.

Substrate in series [16]: CO/N=C(\C(=O)N[C@@H]1C(=O)N2C(C(=O)[O-])=C(C[N+]3(C)CCCC3)CS[C@H]12)c1csc(N)n1
The description is as §1. Conditions: Stutzerimonas stutzeri.

Substrate in series [17]: CC(C)(O/N=C(\C(=O)N[C@@H]1C(=O)N2C(C(=O)[O-])=C(C[n+]3ccccc3)CS[C@H]12)c1csc(N)n1)C(=O)O
The series is described as §1. The settings on record: Stutzerimonas stutzeri.

Substrate in series [18]: C[C@H]1[C@H](NC(=O)/C(=N\OC(C)(C)C(=O)O)c2csc(N)n2)C(=O)N1S(=O)(=O)O
The description is as §1. Conditions: Stutzerimonas stutzeri.

Substrate in series [19]: CC1(C)S[C@@H]2[C@H](NC(=O)[C@H](C(=O)O)c3ccsc3)C(=O)N2[C@H]1C(=O)O
The series is described as §1. The settings on record: Stutzerimonas stutzeri.

Substrate in series [20]: CC1(C)S[C@@H]2[C@H](NC(=O)[C@H](N)c3ccccc3)C(=O)N2[C@H]1C(=O)O
The series is described as §1. Conditions: Stutzerimonas stutzeri.

Substrate in series [21]: CC(=O)OCC1=C(C(=O)O)N2C(=O)[C@@H](NC(=O)Cc3cccs3)[C@H]2SC1
Described as §1. The settings on record: Stutzerimonas stutzeri.

Take `CO/N=C(\C(=O)N[C@@H]1C(=O)N2C(C(=O)[O-])=C(C[N+]3(C)CCCC3)CS[C@H]12)c1csc(N)n1`: the minimal inhibitory concentration (MIC) in the series with Escherichia coli [1] came out at 1 µg/mL (≈ 2.08 µM).

As to `CC(=O)OCC1=C(C(=O)O)N2C(=O)[C@@H](NC(=O)Cc3cccs3)[C@H]2SC1`, in series [2], the Ratio was determined as 5000.

For the molecule `CC1(C)S[C@@H]2[C@H](NC(=O)Cc3ccccc3)C(=O)N2[C@H]1C(=O)O`, the Ratio in series [2] was 2800.

For the molecule `CC1(C)S[C@@H]2[C@H](NC(=O)[C@H](N)c3ccccc3)C(=O)N2[C@H]1C(=O)O`, the Ratio in [2] is 180.

Turning to `C[C@@H](O)[C@H]1C(=O)N2C(C(=O)O)=C(S[C@@H]3CN[C@H](C(=O)N(C)C)C3)[C@H](C)[C@H]12`, in series [2], the Ratio worked out at 200.

In the case of `CC1(C)S[C@@H]2[C@H](NC(=O)[C@H](N)c3ccc(O)cc3)C(=O)N2[C@H]1C(=O)O` [AMOXICILLIN], the MIC was more than 512 µg/mL with Escherichia coli [3]; more than 512 µg/mL in the series on Stutzerimonas stutzeri [4]; 4 µg/mL in the series on Escherichia coli [5]; more than 512 µg/mL in the series on Escherichia coli [1]; more than 512 µg/mL against Stutzerimonas stutzeri [6]; 4 µg/mL (≈ 10.9 µM) against Escherichia coli [7].

With `C[C@H]1[C@H](NC(=O)/C(=N\OC(C)(C)C(=O)O)c2csc(N)n2)C(=O)N1S(=O)(=O)O` [AZTREONAM], 0.25 µg/mL (≈ 0.574 µM) was the least that counted as inhibitory against Escherichia coli [1] (MIC).

For the molecule `CO/N=C(\C(=O)N[C@@H]1C(=O)N2C(C(=O)O)=C(COC(C)=O)CS[C@H]12)c1csc(N)n1` [CEFOTAXIME], in series [2], the Ratio was 3000. In addition, the results for the minimum inhibitory concentration (MIC) against Escherichia coli [1], in the series with Stutzerimonas stutzeri [6] and in the series on Escherichia coli [7] were 256 µg/mL (≈ 562 µM), 512 µg/mL (≈ 1120 µM) and 0.12 µg/mL (≈ 0.263 µM), respectively.

For the molecule `CO[C@@]1(NC(=O)Cc2cccs2)C(=O)N2C(C(=O)O)=C(COC(N)=O)CS[C@@H]21` [CEFOXITIN], the Ratio in series [2] is 400. Further, the MIC in the series with Escherichia coli [1] stood at 512 µg/mL (≈ 1200 µM); against Stutzerimonas stutzeri [6], 512 µg/mL (≈ 1200 µM); in the series with Escherichia coli [7] it was 4 µg/mL (≈ 9.36 µM).

In the case of `CC(C)(O/N=C(\C(=O)N[C@@H]1C(=O)N2C(C(=O)[O-])=C(C[n+]3ccccc3)CS[C@H]12)c1csc(N)n1)C(=O)O` [CEFTAZIDIME], in series [2], the Ratio was determined as 60. Moreover, the MIC is 256 µg/mL (≈ 468 µM) against Escherichia coli [1], 8 µg/mL (≈ 14.6 µM) against Stutzerimonas stutzeri [6] and 0.06 µg/mL (≈ 0.11 µM) in the series on Escherichia coli [7].

For the molecule `C[C@@H](O)[C@H]1C(=O)N2C(C(=O)O)=C(SCCNC=N)C[C@H]12` [IMIPENEM ANHYDROUS], in [2], the Ratio came out at 440. In addition, the MIC with Escherichia coli [1] came to 2 µg/mL (≈ 6.68 µM); against Stutzerimonas stutzeri [6] it was 64 µg/mL (≈ 214 µM).

On to `CCN1CCN(C(=O)N[C@@H](C(=O)N[C@@H]2C(=O)N3[C@@H]2SC(C)(C)[C@@H]3C(=O)O)c2ccccc2)C(=O)C1=O` [PIPERACILLIN], for which the MIC in the series on Escherichia coli [8] is 512 µg/mL; with Stutzerimonas stutzeri [9], 512 µg/mL; in the series on Escherichia coli [10] it was 1 µg/mL; in the series with Escherichia coli [1], more than 512 µg/mL; with Stutzerimonas stutzeri [6], more than 512 µg/mL; in the series on Escherichia coli [7], 1 µg/mL (≈ 1.93 µM).

Turning to `CC1(C)S[C@@H]2[C@H](NC(=O)[C@H](C(=O)O)c3ccsc3)C(=O)N2[C@H]1C(=O)O` [TICARCILLIN], the Ratio in series [2] came to 15000. Moreover, the minimum inhibitory concentration (MIC) was more than 512 µg/mL with Escherichia coli [3]; more than 512 µg/mL in the series on Stutzerimonas stutzeri [4]; 4 µg/mL in the series on Escherichia coli [5]; more than 512 µg/mL against Escherichia coli [1]; more than 512 µg/mL with Stutzerimonas stutzeri [6]; 4 µg/mL (≈ 10.4 µM) against Escherichia coli [7].

B1: Metallo-beta-lactamase (Pseudomonas stutzeri), D5JGF6 (protein)
chain: MRTHFTALLLLFSLSSLANDEVPELRIEKVKENIFLHTSYSRVNGFGLVSSNGLVVIDKGNAFIVDTPWSDRDTETLVHWIRKNGYELLGSVSTHWHEDRTAGIKWLNDQSISTYATTSTNHLLKENKKEPAKYTLKGNESTLVDGLIEVFYPGGGHTIDNVVVWLPKSKILFGGCFVRSLDSEGLGYTGEAHIDQWSRSAQNALSRYSEAQIVIPGHGKIGDIALLKHTKSLAETASNKSIQPNANASAD
Turning to B1, the Km turned out to be 20 µM in [11]; 90 µM in [12]; 20 µM in series [13]; 3.5 µM in [14]; 80 µM in series [15]; 220 µM in series [16]. The Km was found to be 50 µM in series [17], 80 µM in [19], 110 µM in series [20] and 6 µM in series [21]. Moreover, the kcat in series [11] worked out at 8 s⁻¹; in series [12], 250 s⁻¹; in [13], 4 s⁻¹; in [14] it was 10 s⁻¹; in [15] it was 35 s⁻¹; in series [16], 3 s⁻¹. Moreover, the kcat is 3 s⁻¹ in series [17]; less than 0.01 s⁻¹ in series [18]; 250 s⁻¹ in [19]; 20 s⁻¹ in [20]; 30 s⁻¹ in [21].

By MIC is commonly meant the lowest concentration found to suppress growth. One may read the Km as the substrate concentration at which the rate is half of its maximum. The kcat is the maximal rate divided by the concentration of active sites.
